The numbers were not newly measured in US20220071932A1, “Compositions and Methods Against Stress-Induced Affective Disorders and Their Associated Symptoms” (The Trustees of Columbia University in the City of New York, priority 2019, published 2022), which cites them from elsewhere.

For this series, the system named is depressive symptoms in patients. As to conditions: patients diagnosed with MDD; cited from earlier work.

For the molecule `CC12CC3CC(C)(C1)CC(N)(C3)C2` [memantine], the “reduction of depressive symptoms” value was “does not reduce depressive symptoms”.
